# In US20250387481A1, “PRE-TREATED T CELLS FOR USE AS A MEDICAMENT” (STICHTING HET NEDERLANDS KANKER INSTITUUT-ANTONI VAN …, priority 2022, published 2025):
# Tests used:
# [1] = tested on: tumor-reactive T cells; test: Tumor recognition assay and viability of patient-derived tumor-reactive T cells; type: cell-based, human; details: 10 nmol/L docetaxel
# Protocol: Tumor-reactive patient T cells were generated by co-culturing PBMCs and autologous tumor organoids as described previously (Dekkers, J. F., et al. Nat Protoc, 2021. 16(4): p. 1936-1965; Cattaneo, C. M., et al. Nat Protoc, 2020. 15(1): p. 15-39). In brief, following incubation with 200 ng/ml IFNγ for 24 hr, patient tumor organoids were dissociated into single cell suspensions using TripLE Express. Tumor organoid cells were mixed with patient PBMCs ([…]) and […] were seeded in each well of a U-bottom 96-well plate pre-coated with 5 μg/ml αCD28 antibody. Co-culture medium consisted of RPMI 1640 supplemented with 2 mmol/L Ultraglutamine I, penicillin/streptomycin, 10% human AB serum, 150 U/ml rh-IL-2 and 20 μg/ml αPD1 blocking antibody (Merus, The Netherlands). Medium, IL-2 and αPD1 were refreshed every 2-3 days. PBMCs were harvested and re-stimulated every 7 days by re-plating with fresh tumor organoid cells. After two weeks of co-culture, PBMCs were harvested and used for downstream analysis or cryopreserved for later use.
# Tumor-reactive PBMC were thawed in pre-warmed T cells medium and incubated for 15 minutes with 25 U/mL Benzonase. After washing, cells were re-suspended at 2−3×10^6 cells/ml in T cell medium and cultured overnight at 37° C. T cell medium consisted of RPMI 1640 supplemented with 2 mmol/L Ultraglutamine I, penicillin/streptomycin, 10% human AB serum and 150 U/ml rh-IL-2. The day after, PBMC were incubated with (or without) 10 nmol/L docetaxel for 48 h.
# For evaluation of tumor reactivity, […] were re-stimulated with autologous tumor organoids or autologous healthy organoids (isolated from Geltrex for 48 h and stimulated with 200 ng/ml IFNγ for 24 h, as described in (Dekkers, J. F., et al. Nat Protoc, 2021. 16(4): p. 1936-1965; Cattaneo, C. M., et al. Nat Protoc, 2020. 15(1): p. 15-39; Voorwerk, L., et al. Nat Med, 2019. 25(6): p. 920-928) at a 2:1 effector: target ratio and seeded in αCD28 coated plates in the presence of 20 μg/ml αPD1 and co-cultured for 24 hours. At the end of the 24 h, 50 μl of the assay supernatant were taken on the side and used for the quantification of the secreted IFNγ. To this purpose, the Human IFN-γ Flex Set (BD bioscience) was used in accordance with the manufacturer's instructions. For the evaluation of CD137 expression, at the end of the 24 h, cells were washed twice in FACS buffer and stained with the following antibodies: αCD3 PerCPCy5.5, αCD4 FITC, αCD8 BV421, αCD137 APC, and near IR viability dye for 30 minutes at 4° C. in the dark. […] Cells were then washed twice with FACS buffer and recorded with a Becton Dickinson Fortessa or LSRII flow cytometer.
# [2] = tested on: human healthy lung organoids; test: Healthy organoids killing assay with tumor-reactive T cells; type: cell-based; details: tumor-reactive T cells pre-treated with docetaxel
# Protocol: To express luciferase in the tumor organoids, we used pLenti CMV Puro LUC (w168-1; Plasmid #17477; Addgene). Tumor-reactive PBMC were thawed in pre-warmed T cell medium and incubated for 15 minutes with 25 U/ml Benzonase. After washing, cells were re-suspended at 2−3×10^6 cells/ml in T cell medium and cultured overnight at 37° C. The day after, PBMC were incubated with (or without) 10 nmol/L docetaxel for 48 hr. To determine the sensitivity of tumor and healthy organoids to T cell-mediated killing, flatbottom non-tissue culture treated plates were coated with 5 μg/ml αCD28 and kept at 4° C. overnight prior to co-culture. Tumor organoids were previously transduced with luciferase reporter gene. Organoids were isolated from Geltrex 48 hours prior to co-culture and stimulated with 200 ng/ml IFNγ for 24 hr prior to co-culture. The next day, part of the organoids was dissociated to single cells and counted using a hemocytometer. […] At the end of the 72 hours, tumor and healthy organoids viability in the different conditions was evaluated by microscopy, taking bright-field pictures at 5 and 10× magnification. Tumor cell viability in the different conditions was also measured by luciferase reporter assay using 3 μg/mL luciferin. Luminescence was measured with a Tecan reader (1,000 ms exposure).
smiles,measurement,setting,value
CC(=O)O[C@@]12CO[C@@H]1C[C@H](O)[C@@]1(C)C(=O)[C@H](O)C3=C(C)[C@@H](OC(=O)[C@H](O)[C@@H](NC(=O)OC(C)(C)C)c4ccccc4)C[C@@](O)([C@@H](OC(=O)c4ccccc4)[C@H]21)C3(C)C [docetaxel],IFNγ secretion by T cells,[1],did not enhance IFNγ secretion
same,T cell viability,[1],did not significantly alter T cell viability
same,ability of T cells to recognize tumor organoids (CD137),[1],did not increase
same,"expression of CD137, CD107 or PD1",[1],did not increase
same,killing of healthy organoids,[2],not against healthy organoids
